Results on 21 compounds are retold here after US9771372B2, “Compounds useful as S100-inhibitors” (Active Biotech AB, priority 2014, dated 2017).

For this test, the target named is T1, interaction between biotinylated human S100A9 and human RAGE-Fc (Homo sapiens, UniProt P06702).
T1 construct: made in house; host or cells: E. coli BL21(DE3)/pET1120 (pLR757)
T1 sequence (P06702 1-114): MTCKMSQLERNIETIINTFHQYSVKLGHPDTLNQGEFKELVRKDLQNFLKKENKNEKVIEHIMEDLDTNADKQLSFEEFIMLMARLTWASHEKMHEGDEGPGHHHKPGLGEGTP
Nature of the test: AlphaScreen inhibition assay, Biot-hS100A9:hRAGE-Fc (S100A9-RAGE inhibition assay). The note with it: biot-hS100A9 and rhRAGE-Fc, Ca2+ and Zn2+ in buffer. It is filed as binding. The source says: FIG. 1 is a schematic representation of an assay of the inhibition of the interaction between biotinylated human S100A9 and human RAGE-Fc using a small molecule S100A9 binder.
Inhibition Assay, Biot-hS100A9:hRAGE-Fc
The AlphaScreen (Amplified Luminescent Proximity Homogeneous Assay) contains two types of beads, Alpha Donor beads and Acceptor beads (PerkinElmer). Upon laser excitation at 680 nm a photosensitizer in the Donor bead converts ambient oxygen to a more excited singlet state. The singlet oxygen molecule diffuses (maximum 200 nm) to react with a thioxene derivative in the Acceptor bead and generates a chemiluminescence reaction. Fluorophores in the Acceptor bead subsequently emit light at 520-620 nm which can be detected in the EnVision® Multilabel plate Reader (PerkinElmer). The beads are light sensitive and all work with the beads is performed under subdued light conditions or using green filters on light sources (Roscolux Chroma Green #389, Rosco).
In the AlphaScreen Inhibition Assay described here, protein A (Staphylococcus aureus) conjugated Acceptor beads are used together with streptavidin coated Donor beads (Perkin Elmer 6760617M). The Acceptor beads are pre-incubated with Fc-tagged recombinant human RAGE (rhRAGE-Fc) allowing binding of the rhRAGE-Fc to protein A on the beads. Biotinylated human S100A9 (biot-hS100A9) is pre-incubated with the low molecular test compounds. The pre-mixes are then added to the wells of a micro-plate and incubated allowing interaction between biot-hS100A9 and rhRAGE-Fc. Subsequent addition of streptavidin coated Donor beads causes binding of the streptavidin to the biotinylated hS100A9. After an additional incubation the signal is measured.
Without inhibitory compounds, the interaction of biot-hS100A9 to rhRAGE-Fc will bring the Acceptor and Donor beads in close proximity thus generating a high signal. With an inhibitor present the complex will not form resulting in a decreased signal.
The AlphaScreen assay method is used for screening of the inhibitory effect of different compound samples at fixed concentrations or for IC50 determination by varying the compound concentrations. Samples of test compounds and references are prepared from solutions in DMSO. Relevant reference inhibitors and DMSO are used as controls for defined inhibition and non-inhibition, respectively in the assay. The percent inhibition in assay for test compounds and references are calculated by comparing their obtained assay signals with the signal values for the control with only DMSO (no compound).
Assay concentration of biotinylated hS100A9 and rhRAGE-Fc are batch dependent, and are determined and defined by separate cross-titration experiments using this AlphaScreen inhibition method to verify the optimal setup regarding signal strength and achievement of a defined inhibition with relevant reference compounds. The Final assay concentrations of Acceptor and Donor beads are 20 μg/mL.
Assay buffer is prepared by adding CaCl2 and ZnCl2 to HBS-P and is used freshly prepared in the experiment.
Biotin-hS100A9 solution for the experiment is prepared by dilution of appropriate amount of stock solution biot-hS100A9 in assay buffer (with CaCl2 and ZnCl2) and incubation in room temperature for 30 minutes.
rhRAGE-Fc solution for the experiment is prepared by dilution appropriate amount of rhRAGE-Fc stock in assay buffer.
Protein A Acceptor beads are diluted in assay buffer and are added to an equal volume of the prepared diluted rhRAGE-Fc solution. The beads are light sensitive. The vial is covered with aluminum foil and incubated at room temperature in the dark until biot-hS100A9+compound incubation is finished (see below).
Streptavidin-coated Donor beads are diluted in assay buffer. The beads are very light sensitive. The vial is covered with aluminum foil and incubated at room temperature in the dark until use (see below).
Samples of test compounds, appropriate references and DMSO control are diluted in assay buffer. […]
A general note: Alpha assays give light when donor and acceptor beads are brought close together.

The structures appear in SMILES notation.

Broadly, the IC50 is the midpoint of a concentration-inhibition curve. In the case of `O=C(CCC1CCCC1)NC1(C(F)(F)F)C(=O)Nc2nc3cc(Cl)c(Cl)cc3n21` (single isomer, unassigned) [Example 219b, 3-cyclopentyl-N-[10,11-dichloro-4-oxo-3-(trifluoromethyl)-2,5,7-triazatricyclo[6.4.0.0^2,6]dodeca-1(12),6,8,10-tetraen-3-yl]propanamide], the IC50 amounted to 230 nM.
As for `O=C(CCC1CCCC1)NC1(C(F)(F)F)C(=O)Nc2nc3c(Cl)cc(Cl)cc3n21` (stereo not drawn) [Example 84, 3-cyclopentyl-N-[9,11-dichloro-4-oxo-3-(trifluoromethyl)-2,5,7-triazatricyclo[6.4.0.0^2,6]-dodeca-1(12),6,8,10-tetraen-3-yl]propanamide], the figure is 1400 nM.
For `O=C(CCC1CCCC1)NC1(C(F)(F)F)C(=O)Nc2nc3c(Cl)cccc3n21` (stereo not drawn) [Example 85, N-[9-chloro-4-oxo-3-(trifluoromethyl)-2,5,7-triazatricyclo[6.4.0.0^2,6]dodeca-1(12),6,8,10-tetraen-3-yl]-3-cyclopentylpropanamide] the value was 2600 nM.
On to `O=C(NC1(C(F)(F)F)C(=O)Nc2nc3cc(Cl)c(Cl)cc3n21)C1CCN(C(=O)CC(F)(F)F)CC1` (stereo not drawn) [Example 46, N-[10,11-dichloro-4-oxo-3-(trifluoromethyl)-2,5,7-triazatricyclo[6.4.0.0^2,6]dodeca-1(12),6,8,10-tetraen-3-yl]-1-(3,3,3-trifluoropropanoyl)piperidine-4-carboxamide], for which the IC50 stood at 3800 nM.
As for `O=C(CCC1CCCC1)NC1(C(F)(F)F)C(=O)Nc2nc3c(C(F)(F)F)cc(Br)cc3n21` (stereo not drawn) [Example 129, N-[11-bromo-4-oxo-3,9-bis(trifluoromethyl)-2,5,7-triazatricyclo[6.4.0.0^2,6]dodeca-1(8),6,9,11-tetraen-3-yl]-3-cyclopentylpropanamide], the figure is 2260 nM.
As for `CC(=O)c1cccc2c1nc1n2C(NC(=O)CCC2CCCC2)(C(F)(F)F)C(=O)N1` (single isomer, unassigned) [Example 224b, N-[9-acetyl-4-oxo-3-(trifluoromethyl)-2,5,7-triazatricyclo[6.4.0.0^2,6]dodeca-1(12),6,8,10-tetraen-3-yl]-3-cyclopentylpropanamide], the figure is 10100 nM; as for `O=C(NC1(C(F)(F)F)C(=O)Nc2nc3cc(Cl)c(Cl)cc3n21)c1cccc(OCC(F)(F)F)n1` (stereo not drawn) [Example 64, N-[10,11-dichloro-4-oxo-3-(trifluoromethyl)-2,5,7-triazatricyclo[6.4.0.0^2,6]dodeca-1(12),6,8,10-tetraen-3-yl]-6-(2,2,2-trifluoroethoxy)pyridine-2-carboxamide], 1300 nM.
As for `O=C(CCC1CCCC1)NC1(C(F)(F)F)C(=O)Nc2nc3c(F)c(F)ccc3n21` (stereo not drawn) [Example 82, 3-cyclopentyl-N-[9,10-difluoro-4-oxo-3-(trifluoromethyl)-2,5,7-triazatricyclo[6.4.0.0^2,6]-dodeca-1(12),6,8,10-tetraen-3-yl]propanamide], the figure is 1400 nM; as for `O=C(NC1(C(F)(F)F)C(=O)Nc2nc3cc(Cl)c(Cl)cc3n21)C1(F)CNC1` (stereo not drawn) [Example 103, N-[10,11-dichloro-4-oxo-3-(trifluoromethyl)-2,5,7-triazatricyclo[6.4.0.0^2,6]dodeca-1(8),6,9,11-tetraen-3-yl]-3-fluoroazetidine-3-carboxamide], 3970 nM; as for `O=C(CCC1CCCC1)NC1(C(F)(F)F)C(=O)Nc2nc3c(OC(F)(F)F)cccc3n21` (stereo not drawn) [Example 164, 3-cyclopentyl-N-[4-oxo-9-(trifluoromethoxy)-3-(trifluoromethyl)-2,5,7-triazatricyclo[6.4.0.0^2,6]dodeca-1(12),6,8,10-tetraen-3-yl]propanamide], 1470 nM.
For `CC(=O)c1cccc2c1nc1n2C(NC(=O)CCC2CCCC2)(C(F)(F)F)C(=O)N1` (stereo not drawn) [Example 122, N-[9-acetyl-4-oxo-3-(trifluoromethyl)-2,5,7-triazatricyclo[6.4.0.0^2,6]dodeca-1(12),6,8,10-tetraen-3-yl]-3-cyclopentylpropanamide], the IC50 came to 1500 nM.
For `COc1ccc(-c2cccc3c2nc2n3C(NC(=O)CCC3CCCC3)(C(F)(F)F)C(=O)N2)cc1` (stereo not drawn) [Example 186, 3-cyclopentyl-N-[9-(4-methoxyphenyl)-4-oxo-3-(trifluoromethyl)-2,5,7-triazatricyclo[6.4.0.0^2,6]dodeca-1(12),6,8,10-tetraen-3-yl]propanamide], the IC50 was 580 nM.
For `COC(=O)c1cccc(C(=O)NC2(C(F)(F)F)C(=O)Nc3nc4cc(Cl)c(Cl)cc4n32)n1` (stereo not drawn) [Example 95, methyl 6-{[10,11-dichloro-4-oxo-3-(trifluoromethyl)-2,5,7-triazatricyclo[6.4.0.0^2,6]dodeca-1(8),6,9,11-tetraen-3-yl]carbamoyl}pyridine-2-carboxylate] the value was 1080 nM.
For `CSc1ccc(-c2cccc3c2nc2n3C(NC(=O)CCC3CCCC3)(C(F)(F)F)C(=O)N2)cc1` (stereo not drawn) [Example 232, 3-cyclopentyl-N-{9-[4-(methylsulfanyl)phenyl]-4-oxo-3-(trifluoromethyl)-2,5,7-triazatricyclo[6.4.0.0^2,6]dodeca-1(12),6,8,10-tetraen-3-yl}propanamide] the value was 540 nM; for `CN(C)CCNc1cccc(C(=O)NC2(C(F)(F)F)C(=O)Nc3nc4cc(Cl)c(Cl)cc4n32)n1` (stereo not drawn) [Example 93, N-[10,11-dichloro-4-oxo-3-(trifluoromethyl)-2,5,7-triazatricyclo[6.4.0.0^2,6]dodeca-1(8),6,9,11-tetraen-3-yl]-6-{[2-(dimethylamino)ethyl]amino}pyridine-2-carboxamide], 600 nM.
As for `COc1ccc(-c2cccc3c2nc2n3C(NC(=O)CCC3CCCC3)(C(F)(F)F)C(=O)N2)cn1` (stereo not drawn) [Example 188, 3-cyclopentyl-N-[9-(6-methoxypyridin-3-yl)-4-oxo-3-(trifluoromethyl)-2,5,7-triazatricyclo[6.4.0.0^2,6]dodeca-1(12),6,8,10-tetraen-3-yl]propanamide], the figure is 940 nM; as for `Cc1cc2nc3n(c2cc1C)C(NC(=O)CC1CCCCC1)(C(F)(F)F)C(=O)N3` (stereo not drawn) [Example 20, 2-cyclohexyl-N-[10,11-dimethyl-4-oxo-3-(trifluoromethyl)-2,5,7-triazatricyclo-[6.4.0.0^2,6]dodeca-1(8),6,9,11-tetraen-3-yl]acetamide], 1700 nM; as for `O=C(NC1(C(F)(F)F)C(=O)Nc2nc3cc(Cl)c(Cl)cc3n21)c1ccccc1` (stereo not drawn) [Example 38, N-[10,11-dichloro-4-oxo-3-(trifluoromethyl)-2,5,7-triazatricyclo[6.4.0.0^2,6]dodeca-1(8),6,9,11-tetraen-3-yl]benzamide], 1000 nM.
As to `Cc1ccc2c(nc3n2C(NC(=O)CCC2CCCC2)(C(F)(F)F)C(=O)N3)c1C` (stereo not drawn) [Example 80, 3-cyclopentyl-N-[9,10-dimethyl-4-oxo-3-(trifluoromethyl)-2,5,7-triazatricyclo[6.4.0.0^2,6]-dodeca-1(12),6,8,10-tetraen-3-yl]propanamide], the IC50 was 7400 nM.
For `CCNc1cccc(C(=O)NC2(C(F)(F)F)C(=O)Nc3nc4cc(Cl)c(Cl)cc4n32)n1` (stereo not drawn) [Example 70, N-[10,11-dichloro-4-oxo-3-(trifluoromethyl)-2,5,7-triazatricyclo[6.4.0.0^2,6]dodeca-1(12),6,8,10-tetraen-3-yl]-6-(ethylamino)pyridine-2-carboxamide] the value was 1300 nM.
As for `Cc1cc2nc3n(c2cc1C)C(NC(=O)[C@@H](C)c1ccccc1)(C(F)(F)F)C(=O)N3` (single isomer, unassigned) [Example 144], the figure is 6410 nM.
